Data reported in US10077288B2, “Hydroxystatin derivatives for the treatment of arthrosis” (Merck Patent GmbH, priority 2012, dated 2018).
*1 amine or outer side, *2 acyl side, *3 side chain or, on linkers, in order; H or OH if unused. Where a SMILES comes first, the peptide text is derived from it. [ ]: non-standard residue; d: D form. The star is where a group is joined. Ahppa(3S,4S) = O=C(C[C@H](O)[C@H](Cc1ccccc1)N[*:1])[*:2]; Sta = CC(C)C[C@H](N)[C@@H](O)CC(=O)O; Isovaleryl = CC(C)CC(=O)*

Assays:
[1] = test system: bovine explants (cartilage degradation, liberation of GAG); test: Cartilage explant assay: pH-induced cartilage degradation, GAG release; assay type: cell-based; conditions: Bos taurus, 72 h, pH 5.5, 3 days
Source text: EXAMPLE 5: CARTILAGE EXPLANT ASSAY
In order to investigate the effect of potential cathepsin D inhibitors on cartilage degradation, a pH-induced model based on bovine explants is used. The pH of the medium in which the explants are cultivated is matched here to the pathophysiological pH of an arthrotic knee. This pH is pH 5.5. In this ex vivo model, potential cathepsin D inhibitors are subsequently investigated for their action with respect to stopping of the cartilage degradation process. If the cartilage is destroyed, glycosaminoglycans (GAGs) are released into the cell culture supernatant. The amount of GAGs liberated can be determined quantitatively with the aid of DMMB (dimethylmethylene blue hydrochloride). If sulfated GAGs are detected using dimethylmethylene blue hydrochloride, the decrease in the absorption at 633 nm is utilised. […] In order to determine the concentration, a calibration line is also recorded using chondroitin sulfate.
1.) Procedure: pH-Induced Cartilage Degradation of Bovine Explants
The bovine explants are firstly prepared. The induction of the cartilage degradation is carried out in 96-multiwell plates. One explant is cultivated per well. In each case, 200 μl of DMEM (incubation medium pH 5.5) without FBS+30 μg/ml of ascorbic acid are added. Thus negative control, explants (n=4) are incubated at pH 7.4 (without FBS). This control is not included in the calculation of the data, but instead ensures that the pH change has the desired effect on the liberation of GAG. At this point, the substances to be tested are added. No pre-incubation of the explants is carried out. The explants are cultivated with the corresponding substances for 3 days in the incubator at 37° C. and 7.5% CO2.
In order to investigate the effect of cathepsin D inhibitors on the liberation of GAG (glycosaminoglycan), the substances are employed in the desired concentration and cultivated for 3 days. The compounds to be tested are tested in a first experiment in a concentration of 1 μM and 1% of DMSO. Substances which have an effect of >50% on the liberation of GAG (this corresponds to <50% of the control in the Assay Explorer) are tested in the next experiment at 100 nM and 1% of DMSO. Substances which have an effect of >50% on the liberation of GAG under these conditions (this corresponds to <50% of the control in the Assay Explorer) are tested in a concentration/effect relationship. The compounds here are investigated in the following concentrations: 30 μM, 10 μM, 3 μM, 1 μM, 0.3 μM, 0.1 μM, 0.03 μM, 0.01 μM.
The positive control used is pepstatin A with a concentration of 0.01 μM. The assay window is defined by the control (pH 5.5), defined as 0% effect, and the control pH 5.5+0.01 μM pepstatin A, defined as 100% effect. After incubation for 3 days, the cell culture supernatants are collected and stored at −20° C. or measured directly. The amount of liberated GAG is measured photometrically.
The effect (1 value) of the respective substance in % based on the positive control (pH 5.5+0.01 μM pepstatin A) and the negative control (pH 5.5) is reported for concentrations of 1 μM and 100 nM. The value represents the average of 4 replicants. In the determination of a concentration/effect relationship, an IC50 value is reported to the database (Assay Explorer).
The cell culture supernatants (200 μl) are either measured directly or stored at −20° C. […] A rapid colour reaction occurs, which is subsequently measured at 633 nm using a plate reader (for example Envision). […]

[2] = target: T1, cathepsin D isolated from the human liver (Homo sapiens, UniProt P07339); test: In-vitro fluorescence assay for identification of cathepsin D inhibitors; assay type: biochemical; conditions: human liver cathepsin D 1.4 nM, pH 5.5; read-out: CatD assay IC50-(M)
T1 construct: cathepsin D isolated from the human liver (Sigma-Aldrich); purchased Sigma-Aldrich; host or cells: human liver (tissue-derived, not recombinant)
T1 sequence (P07339 65-161 limits assumed): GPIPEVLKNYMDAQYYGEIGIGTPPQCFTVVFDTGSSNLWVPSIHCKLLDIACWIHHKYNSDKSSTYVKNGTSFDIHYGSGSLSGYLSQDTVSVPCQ
T1 sequence (P07339 169-412 limits assumed): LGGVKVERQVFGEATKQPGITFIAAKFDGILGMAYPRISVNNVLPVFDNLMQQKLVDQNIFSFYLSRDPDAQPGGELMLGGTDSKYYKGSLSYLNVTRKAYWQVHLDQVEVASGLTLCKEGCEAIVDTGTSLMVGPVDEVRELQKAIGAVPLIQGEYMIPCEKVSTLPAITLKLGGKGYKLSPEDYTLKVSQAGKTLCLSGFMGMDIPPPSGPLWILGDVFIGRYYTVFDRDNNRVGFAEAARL
Summary of the method: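 Continuous FRET assay: human liver cathepsin D (1.4 nM final) preincubated 10 min at room temperature with serially diluted compound in 100 mM sodium acetate, 1.25% DMSO, 0.25% Chaps, pH 5.5. Started with 5 μM MCA-GKPILFFRLK(Dnp)d-R-NH2; fluorescence increase (ex 340/em 450 nm) over 60 min at room temperature compared with no-compound control.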

[3] = test system: rat knee joint inflammation (CAR-induced); test: Anti-hyperalgesic effect in animals: carrageenan-induced knee joint inflammation, Hargreaves test and swelling; assay type: in vivo; conditions: intra-articular administration 30 minutes before CAR; for CAR-induced swelling: rat knee joint
Description: EXAMPLE 6: INVESTIGATION OF THE ANTI-HYPERALGESIC EFFECT IN ANIMALS
In order to induce an inflammation reaction, a carrageenan solution […]) was injected intra-articularly on one side into a rat knee joint. The uninjected side was used for control purposes. Six animals per group were used. The […] was determined by means of a micrometer screw (medial-lateral on the knee joint), and the thermal hyperalgesia was determined by means of a directed infrared light source by the Hargreaves method (Hargreaves et al., 1988) on the sole of the foot. Since the site of inflammation (knee joint) is different from the site of measurement (paw sole), use is made here of the term secondary thermal hyperalgesia, the mechanism of which is of importance for the discovery of effective analgesics.
Experimental description of thermal hyperalgesia (Hargreaves test): the experimental animal is placed in a plastic chamber on a quartz sheet. Before testing, the experimental animal is firstly given about 5-15 minutes time to familiarise itself with the environment. As soon as the experimental animal no longer moves so frequently after the familiarisation phase (end of the exploration phase), the infrared light source, whose focus is in the plane of the glass bottom, is positioned directly beneath the rear paw to be stimulated. An experiment run is then started by pressing the button: infrared light results in an increase in the skin temperature of the rear paw. The experiment is terminated either by the experimental animal raising the rear paw (as an expression of the pain threshold being reached) or by automatic switching-off of the infrared light source when a prespecified maximum temperature has been reached. Light reflected by the paw is recorded as long as the experimental animal sits still. Withdrawal of the paw interrupts this reflection, after which the infrared light source is switched off and the time from switching on to switching off is recorded. […]

[4] = test system: bovine explants (cartilage degradation, liberation of GAG); conditions: pH 5.5, explant cultures (for example from mouse, cow or human); background statement; cited from earlier work

IC50 [2] | SMILES | IC50 [1] | CAR-induced swelling [3] | inhibition of autodigestion of the cartilage [4] | further results
3e-09 M | CC[C@H](C)[C@H](NC(=O)C[C@H](O)[C@H](Cc1ccccc1)NC(=O)[C@@H](NC(=O)[C@H](CC(C)C)NC(=O)CC(C)C)C(C)C)C(=O)N[C@H](C(=O)O)C(C)C [Compound 8, (S)-2-[(2S,3S)-2-((3S,4S)-3-hydroxy-4-{(S)-3-methyl-2-[(S)-4-methyl-2-(3-methylbutyrylamino)pentanoylamino]butyrylamino}-5-phenylpentanoylamino)-3-methylpentanoylamino]-3-methylbutyric acid] (Isovaleryl-LV[Ahppa(3S,4S)]IV-OH) | 2.76 nM | – | – | –
7.51e-08 M | CC[C@H](C)[C@H](NC(=O)C[C@H](O)[C@H](Cc1ccccc1)NC(=O)[C@H](NC(=O)[C@H](CC(C)C)NC(=O)CC(C)C)C(C)C)C(=O)N[C@H](C(=O)O)C(C)C [Compound 9, (S)-2-[(2S,3S)-2-((3S,4S)-3-hydroxy-4-{(R)-3-methyl-2-[(S)-4-methyl-2-(3-methylbutyrylamino)pentanoylamino]butyrylamino}-5-phenylpentanoylamino)-3-methylpentanoylamino]-3-methylbutyric acid] (Isovaleryl-L[dV][Ahppa(3S,4S)]IV-OH) | 31.2 nM | – | – | –
1.2e-05 M | CC[C@H](C)[C@H](NC(=O)C[C@H](O)[C@H](Cc1ccccc1)NC(=O)[C@@H](NC(=O)c1cccc(-c2ccccc2)c1)C(C)C)C(=O)N[C@H](C(=O)OCc1ccccc1)C(C)C [Compound 23, benzly (S)-2-[(2S,3S)-2-((3S,4S)-4-{(S)-2-[(biphenyl-3-carbonyl)-amino]-3-methylbutyrylamino}-3-hydroxy-5-phenylpentanoylamino)-3-methylpentanoylamino]-3-methylbutyrate] | – | exhibited no influence on inflammatory swelling | – | thermal hyperalgesia (anti-hyperalgesic action) ([3]; rat, Hargreaves method): exerts an anti-hyperalgesic action
– | C[C@]12C=CC(=O)C=C1CC[C@H]1[C@@H]3C[C@@H](O)[C@](O)(C(=O)CO)[C@@]3(C)C[C@H](O)[C@@]12F [TAC, Triamcinolone, reference compound] | – | capable of reducing the CAR-induced swelling | – | –
– | CC(C)CC(=O)N[C@H](C(=O)N[C@H](C(=O)N[C@@H](CC(C)C)[C@@H](O)CC(=O)N[C@@H](C)C(=O)N[C@@H](CC(C)C)[C@@H](O)CC(=O)O)C(C)C)C(C)C [pepstatin] (Isovaleryl-VV[Sta]A[Sta]-OH) | – | – | inhibited virtually completely | –
– | CC(C)c1nc(CN(C)C(=O)N[C@H](C(=O)N[C@@H](Cc2ccccc2)C[C@H](O)[C@H](Cc2ccccc2)NC(=O)OCc2cncs2)C(C)C)cs1 [ritonavir] | – | – | inhibited virtually completely | –
